The values below are quoted from earlier work in patent US20250312497A1, “METHOD OF TREATING PROSTATE CANCER” (Novartis AG, priority 2022, published 2025).

In one data set the test system is mCRPC. Particulars: control arm; prior docetaxel and abiraterone acetate and/or enzalutamide; cited from earlier work.
In data set [1] the test system is docetaxel progressing metastatic castration-resistant prostate cancer. To be noted: randomized, 200 patients; P<0.0001; cited from earlier work.

Each structure is given as a SMILES string.

For the molecule `C[C@]12C=CC(=O)C=C1CC[C@@H]1[C@@H]2C(=O)C[C@@]2(C)[C@H]1CC[C@]2(O)C(=O)CO` [prednisone], in the data set with mCRPC, the median overall survival was 9.8 months.

`CO[C@H]1C(=O)[C@]2(C)[C@@H](OC)C[C@H]3OC[C@@]3(OC(C)=O)[C@H]2[C@H](OC(=O)c2ccccc2)[C@]2(O)C[C@H](OC(=O)[C@H](O)[C@@H](NC(=O)OC(C)(C)C)c3ccccc3)C(C)=C1C2(C)C` [cabazitaxel]: the “proportion of patients with PSA decline >=50%” value in data set [1] was 37%.
